According to the supplement of paper PMC8612539:
In brackets after ≈: the same amount, converted by molar mass.

Test system: Escherichia coli
Assay: minimum inhibitory concentration (MIC)
Procedure: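 Broth microdilution MIC (Sensititre BOPO7F bovine plate, CLSI methods) of 19 antimicrobials against field isolates of P. multocida, M. haemolytica, H. somni (deep nasopharyngeal swabs) and E. coli, Enterococcus spp. (rectal swabs) from weaned dairy heifers. Incubation 16-24 h at 35 C. MIC is the lowest concentration preventing visible growth. Values with <= or > lie at the tested range limits. Trimethoprim-sulfamethoxazole is given as the trimethoprim component of a 1:19 mixture.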

CN(C)[C@@H]1C(O)=C(C(N)=O)C(=O)[C@@]2(O)C(O)=C3C(=O)c4c(O)cccc4[C@@](C)(O)[C@H]3C[C@@H]12 [Tetracycline]
Conditions	minimum inhibitory concentration [µg/mL]
isolate (source animal id): 8	> 8
isolate (source animal id): 9	> 8
isolate (source animal id): 10	> 8
isolate (source animal id): 11	1 (≈ 2.25 µM)
isolate (source animal id): 12	> 8
isolate (source animal id): 13	> 8
isolate (source animal id): 14	> 8
isolate (source animal id): 15	> 8
isolate (source animal id): 16	> 8
isolate (source animal id): 98	> 8
isolate (source animal id): 99	2 (≈ 4.5 µM)
isolate (source animal id): 100	> 8
isolate (source animal id): 101	> 8
isolate (source animal id): 102	> 8
isolate (source animal id): 103	> 8
isolate (source animal id): 104	> 8
isolate (source animal id): 105	> 8
isolate (source animal id): 106	> 8
isolate (source animal id): 107	> 8
isolate (source animal id): 108	> 8
isolate (source animal id): 109	> 8
isolate (source animal id): 110	> 8
isolate (source animal id): 111	> 8
isolate (source animal id): 112	> 8
isolate (source animal id): 113	> 8
isolate (source animal id): 114	> 8
isolate (source animal id): 115	> 8
isolate (source animal id): 116	> 8
isolate (source animal id): 117	> 8
isolate (source animal id): 118	> 8
isolate (source animal id): 119	> 8
isolate (source animal id): 120	> 8
isolate (source animal id): 121	> 8
isolate (source animal id): 122	> 8
isolate (source animal id): 123	> 8
isolate (source animal id): 124	> 8
isolate (source animal id): 125	> 8
isolate (source animal id): 126	> 8
isolate (source animal id): 127	> 8
isolate (source animal id): 128	> 8
isolate (source animal id): 129	> 8
isolate (source animal id): 130	> 8
isolate (source animal id): 131	> 8
isolate (source animal id): 132	> 8
isolate (source animal id): 133	> 8
isolate (source animal id): 134	> 8
isolate (source animal id): 135	2 (≈ 4.5 µM)
isolate (source animal id): 136	> 8
isolate (source animal id): 137	> 8
isolate (source animal id): 138	> 8
isolate (source animal id): 139	> 8
isolate (source animal id): 140	1 (≈ 2.25 µM)
isolate (source animal id): 141	> 8
isolate (source animal id): 142	> 8
isolate (source animal id): 143	> 8
isolate (source animal id): 144	> 8
isolate (source animal id): 145	> 8
isolate (source animal id): 146	> 8
isolate (source animal id): 147	> 8
isolate (source animal id): 148	> 8
isolate (source animal id): 149	> 8
isolate (source animal id): 150	> 8
isolate (source animal id): 151	> 8
isolate (source animal id): 152	> 8
isolate (source animal id): 153	> 8
isolate (source animal id): 154	> 8
isolate (source animal id): 155	> 8
isolate (source animal id): 156	> 8
isolate (source animal id): 157	> 8
isolate (source animal id): 158	> 8
isolate (source animal id): 159	> 8
isolate (source animal id): 160	> 8
isolate (source animal id): 161	> 8
isolate (source animal id): 162	> 8
isolate (source animal id): 163	> 8
isolate (source animal id): 164	> 8
isolate (source animal id): 165	> 8
isolate (source animal id): 166	> 8
isolate (source animal id): 167	> 8
isolate (source animal id): 168	1 (≈ 2.25 µM)
isolate (source animal id): 169	1 (≈ 2.25 µM)
isolate (source animal id): 170	> 8
isolate (source animal id): 171	1 (≈ 2.25 µM)
isolate (source animal id): 172	1 (≈ 2.25 µM)
isolate (source animal id): 173	> 8
isolate (source animal id): 174	> 8
isolate (source animal id): 175	> 8
isolate (source animal id): 176	> 8
isolate (source animal id): 177	> 8
isolate (source animal id): 178	> 8
isolate (source animal id): 179	1 (≈ 2.25 µM)
isolate (source animal id): 180	> 8
isolate (source animal id): 181	> 8
isolate (source animal id): 182	> 8
isolate (source animal id): 183	> 8
isolate (source animal id): 184	> 8
isolate (source animal id): 185	> 8
isolate (source animal id): 186	1 (≈ 2.25 µM)
isolate (source animal id): 187	> 8
isolate (source animal id): 188	> 8

CCC[C@@H]1C[C@@H](C(=O)N[C@@H]([C@H]2O[C@H](SC)[C@H](O)[C@@H](O)[C@H]2O)[C@H](C)Cl)N(C)C1 [Clindamycin]
Conditions	minimum inhibitory concentration [µg/mL]
isolate (source animal id): 8	> 16
isolate (source animal id): 9	> 16
isolate (source animal id): 10	> 16
isolate (source animal id): 11	> 16
isolate (source animal id): 12	> 16
isolate (source animal id): 13	> 16
isolate (source animal id): 14	> 16
isolate (source animal id): 15	> 16
isolate (source animal id): 16	> 16
isolate (source animal id): 98	> 16
isolate (source animal id): 99	> 16
isolate (source animal id): 100	> 16
isolate (source animal id): 101	> 16
isolate (source animal id): 102	> 16
isolate (source animal id): 103	> 16
isolate (source animal id): 104	> 16
isolate (source animal id): 105	> 16
isolate (source animal id): 106	> 16
isolate (source animal id): 107	> 16
isolate (source animal id): 108	> 16
isolate (source animal id): 109	> 16
isolate (source animal id): 110	> 16
isolate (source animal id): 111	> 16
isolate (source animal id): 112	> 16
isolate (source animal id): 113	> 16
isolate (source animal id): 114	> 16
isolate (source animal id): 115	> 16
isolate (source animal id): 116	> 16
isolate (source animal id): 117	> 16
isolate (source animal id): 118	> 16
isolate (source animal id): 119	> 16
isolate (source animal id): 120	> 16
isolate (source animal id): 121	> 16
isolate (source animal id): 122	> 16
isolate (source animal id): 123	> 16
isolate (source animal id): 124	> 16
isolate (source animal id): 125	> 16
isolate (source animal id): 126	> 16
isolate (source animal id): 127	> 16
isolate (source animal id): 128	> 16
isolate (source animal id): 129	> 16
isolate (source animal id): 130	> 16
isolate (source animal id): 131	> 16
isolate (source animal id): 132	> 16
isolate (source animal id): 133	> 16
isolate (source animal id): 134	> 16
isolate (source animal id): 135	> 16
isolate (source animal id): 136	> 16
isolate (source animal id): 137	> 16
isolate (source animal id): 138	> 16
isolate (source animal id): 139	> 16
isolate (source animal id): 140	> 16
isolate (source animal id): 141	> 16
isolate (source animal id): 142	> 16
isolate (source animal id): 143	> 16
isolate (source animal id): 144	> 16
isolate (source animal id): 145	> 16
isolate (source animal id): 146	> 16
isolate (source animal id): 147	> 16
isolate (source animal id): 148	> 16
isolate (source animal id): 149	> 16
isolate (source animal id): 150	> 16
isolate (source animal id): 151	> 16
isolate (source animal id): 152	> 16
isolate (source animal id): 153	> 16
isolate (source animal id): 154	> 16
isolate (source animal id): 155	> 16
isolate (source animal id): 156	> 16
isolate (source animal id): 157	> 16
isolate (source animal id): 158	> 16
isolate (source animal id): 159	> 16
isolate (source animal id): 160	> 16
isolate (source animal id): 161	> 16
isolate (source animal id): 162	> 16
isolate (source animal id): 163	> 16
isolate (source animal id): 164	> 16
isolate (source animal id): 165	> 16
isolate (source animal id): 166	> 16
isolate (source animal id): 167	> 16
isolate (source animal id): 168	> 16
isolate (source animal id): 169	> 16
isolate (source animal id): 170	> 16
isolate (source animal id): 171	> 16
isolate (source animal id): 172	> 16
isolate (source animal id): 173	> 16
isolate (source animal id): 174	> 16
isolate (source animal id): 175	> 16
isolate (source animal id): 176	> 16
isolate (source animal id): 177	> 16
isolate (source animal id): 178	> 16
isolate (source animal id): 179	> 16
isolate (source animal id): 180	> 16
isolate (source animal id): 181	> 16
isolate (source animal id): 182	> 16
isolate (source animal id): 183	> 16
isolate (source animal id): 184	> 16
isolate (source animal id): 185	> 16
isolate (source animal id): 186	> 16
isolate (source animal id): 187	> 16
isolate (source animal id): 188	> 16
